Laboratory results reported in publication PMC7998669, “7-(2-Anilinopyrimidin-4-yl)-1-benzazepin-2-ones Designed by a “Cut and Glue” Strategy Are Dual Aurora A/VEGF-R Kinase Inhibitors” (Molecules, 2021).

Legend:
Assay in all cases: radiometric 33PanQinase protein kinase assay
Format in all cases: biochemical
Settings in all cases: 1 µM ATP
PAK4 = biological target: T1, PAK4 (Homo sapiens, UniProt O96013)
T1 construct: host or cells: Sf9 (baculovirus)

AKT1 = biological target: T2, AKT1 (Homo sapiens, UniProt P31749)
T2 construct: host or cells: Sf9 (baculovirus)
T2 sequence (P31749 whole entry): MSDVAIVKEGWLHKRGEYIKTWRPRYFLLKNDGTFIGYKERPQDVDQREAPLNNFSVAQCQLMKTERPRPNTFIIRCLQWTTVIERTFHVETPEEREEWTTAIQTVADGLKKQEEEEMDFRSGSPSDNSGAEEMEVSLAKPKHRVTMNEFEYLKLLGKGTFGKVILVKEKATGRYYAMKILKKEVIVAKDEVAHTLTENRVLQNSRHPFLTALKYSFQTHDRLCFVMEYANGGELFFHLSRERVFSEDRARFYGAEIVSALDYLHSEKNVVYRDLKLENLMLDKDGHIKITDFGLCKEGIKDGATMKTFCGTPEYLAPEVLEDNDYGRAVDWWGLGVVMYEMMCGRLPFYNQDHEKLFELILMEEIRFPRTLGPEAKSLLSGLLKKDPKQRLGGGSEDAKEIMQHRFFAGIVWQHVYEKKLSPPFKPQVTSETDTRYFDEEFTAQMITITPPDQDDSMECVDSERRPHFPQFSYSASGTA

FAK = biological target: T3, FAK (Homo sapiens, UniProt Q05397)
T3 construct: host or cells: Sf9 (baculovirus)
T3 sequence (Q05397 whole entry): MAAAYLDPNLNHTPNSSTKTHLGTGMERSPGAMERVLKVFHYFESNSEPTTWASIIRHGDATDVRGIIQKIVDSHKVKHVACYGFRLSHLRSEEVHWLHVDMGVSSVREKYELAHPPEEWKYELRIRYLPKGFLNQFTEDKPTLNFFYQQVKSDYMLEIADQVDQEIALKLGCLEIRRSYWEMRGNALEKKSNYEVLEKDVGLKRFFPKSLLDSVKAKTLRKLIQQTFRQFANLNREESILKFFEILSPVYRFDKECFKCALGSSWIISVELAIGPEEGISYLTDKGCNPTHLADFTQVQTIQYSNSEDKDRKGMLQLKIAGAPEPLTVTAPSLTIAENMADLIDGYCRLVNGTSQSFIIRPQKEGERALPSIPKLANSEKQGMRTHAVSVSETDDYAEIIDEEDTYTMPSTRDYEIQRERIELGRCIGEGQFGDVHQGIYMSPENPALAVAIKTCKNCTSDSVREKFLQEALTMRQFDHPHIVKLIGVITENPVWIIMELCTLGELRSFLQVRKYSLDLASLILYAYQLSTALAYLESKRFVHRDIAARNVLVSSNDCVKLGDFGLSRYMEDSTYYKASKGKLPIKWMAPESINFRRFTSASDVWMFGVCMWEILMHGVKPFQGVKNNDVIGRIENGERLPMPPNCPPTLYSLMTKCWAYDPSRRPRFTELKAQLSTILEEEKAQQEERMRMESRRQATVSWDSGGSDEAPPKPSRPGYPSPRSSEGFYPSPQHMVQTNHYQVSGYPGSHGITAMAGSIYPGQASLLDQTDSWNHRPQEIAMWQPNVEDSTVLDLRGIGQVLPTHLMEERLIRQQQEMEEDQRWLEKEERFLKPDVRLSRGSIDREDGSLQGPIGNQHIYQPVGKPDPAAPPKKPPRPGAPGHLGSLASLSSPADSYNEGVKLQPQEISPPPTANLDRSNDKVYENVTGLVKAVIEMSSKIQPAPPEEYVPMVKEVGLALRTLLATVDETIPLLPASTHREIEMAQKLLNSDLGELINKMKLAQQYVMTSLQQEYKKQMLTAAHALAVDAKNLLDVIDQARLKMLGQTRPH

PLK1 = biological target: T4, PLK1 (Homo sapiens, UniProt P53350)
T4 construct: host or cells: Sf9 (baculovirus)
T4 sequence (P53350 whole entry): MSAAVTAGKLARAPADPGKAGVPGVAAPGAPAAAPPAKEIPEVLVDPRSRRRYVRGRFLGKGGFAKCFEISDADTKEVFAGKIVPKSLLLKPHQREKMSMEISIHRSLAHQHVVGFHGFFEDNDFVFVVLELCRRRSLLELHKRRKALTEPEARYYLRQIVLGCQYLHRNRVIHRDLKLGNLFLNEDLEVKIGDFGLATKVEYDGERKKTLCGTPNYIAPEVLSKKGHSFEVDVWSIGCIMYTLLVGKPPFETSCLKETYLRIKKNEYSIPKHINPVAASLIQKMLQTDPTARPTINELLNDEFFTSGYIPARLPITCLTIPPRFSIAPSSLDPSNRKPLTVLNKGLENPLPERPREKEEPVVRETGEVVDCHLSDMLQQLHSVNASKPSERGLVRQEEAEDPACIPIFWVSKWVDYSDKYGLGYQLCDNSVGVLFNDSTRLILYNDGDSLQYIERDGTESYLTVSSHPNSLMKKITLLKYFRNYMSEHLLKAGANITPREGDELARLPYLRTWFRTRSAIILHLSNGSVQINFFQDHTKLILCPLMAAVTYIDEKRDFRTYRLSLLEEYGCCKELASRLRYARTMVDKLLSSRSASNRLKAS

T1 sequence (O96013 whole entry): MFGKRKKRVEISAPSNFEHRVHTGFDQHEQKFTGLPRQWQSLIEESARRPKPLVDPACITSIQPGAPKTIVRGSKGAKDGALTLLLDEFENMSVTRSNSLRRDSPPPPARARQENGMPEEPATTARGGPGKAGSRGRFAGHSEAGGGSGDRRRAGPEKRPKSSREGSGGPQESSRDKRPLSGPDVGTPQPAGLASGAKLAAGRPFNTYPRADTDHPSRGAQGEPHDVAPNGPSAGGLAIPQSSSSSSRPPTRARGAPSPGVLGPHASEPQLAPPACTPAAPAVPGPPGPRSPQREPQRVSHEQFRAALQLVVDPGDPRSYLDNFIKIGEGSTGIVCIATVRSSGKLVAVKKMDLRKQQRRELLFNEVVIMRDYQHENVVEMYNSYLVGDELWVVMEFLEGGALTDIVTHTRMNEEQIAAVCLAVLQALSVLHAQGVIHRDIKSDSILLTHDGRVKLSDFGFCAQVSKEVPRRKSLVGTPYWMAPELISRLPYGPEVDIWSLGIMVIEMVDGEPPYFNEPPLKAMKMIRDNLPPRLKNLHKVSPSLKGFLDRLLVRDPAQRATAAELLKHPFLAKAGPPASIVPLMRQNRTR

- IC50 (PAK4): > 100 µM
- IC50 (AKT1): > 100 µM
- IC50 (FAK): > 100 µM
- IC50 (PLK1): > 100 µM
SMILES: O=C1CCCc2cc(-c3ccnc(Nc4ccccc4)n3)ccc2N1 [Compound 2a, 7-(2-Anilinopyrimidin-4-yl)-1,3,4,5-tetrahydro-2H-1-benzazepin-2-one]
